How the values were obtained:
Assay type in all cases: cell-based
CFTR = target: T1, CFTR (Homo sapiens, UniProt P13569); assay: short-circuit current (Ussing chamber), forskolin-activated; complete block at […]
T1 construct: CFTR-expressing FRT cells

hERG channel = target: T2, hERG channel (Homo sapiens, UniProt Q12809); assay: automated patch clamp (PatchLiner), hERG tail current
T2 construct: gene KCNH2; hERG-overexpressing HEK cells

[1] = target: T3, Anoctamin 1 (ANO1, TMEM16A) (Homo sapiens, UniProt Q5XXA6); assay: YFP iodide-influx quenching assay and short-circuit current (Ussing chamber)
T3 construct: endogenous ANO1 in PC9-YFP cells; ANO1-expressing FRT cells
T3 sequence (Q5XXA6 1-986): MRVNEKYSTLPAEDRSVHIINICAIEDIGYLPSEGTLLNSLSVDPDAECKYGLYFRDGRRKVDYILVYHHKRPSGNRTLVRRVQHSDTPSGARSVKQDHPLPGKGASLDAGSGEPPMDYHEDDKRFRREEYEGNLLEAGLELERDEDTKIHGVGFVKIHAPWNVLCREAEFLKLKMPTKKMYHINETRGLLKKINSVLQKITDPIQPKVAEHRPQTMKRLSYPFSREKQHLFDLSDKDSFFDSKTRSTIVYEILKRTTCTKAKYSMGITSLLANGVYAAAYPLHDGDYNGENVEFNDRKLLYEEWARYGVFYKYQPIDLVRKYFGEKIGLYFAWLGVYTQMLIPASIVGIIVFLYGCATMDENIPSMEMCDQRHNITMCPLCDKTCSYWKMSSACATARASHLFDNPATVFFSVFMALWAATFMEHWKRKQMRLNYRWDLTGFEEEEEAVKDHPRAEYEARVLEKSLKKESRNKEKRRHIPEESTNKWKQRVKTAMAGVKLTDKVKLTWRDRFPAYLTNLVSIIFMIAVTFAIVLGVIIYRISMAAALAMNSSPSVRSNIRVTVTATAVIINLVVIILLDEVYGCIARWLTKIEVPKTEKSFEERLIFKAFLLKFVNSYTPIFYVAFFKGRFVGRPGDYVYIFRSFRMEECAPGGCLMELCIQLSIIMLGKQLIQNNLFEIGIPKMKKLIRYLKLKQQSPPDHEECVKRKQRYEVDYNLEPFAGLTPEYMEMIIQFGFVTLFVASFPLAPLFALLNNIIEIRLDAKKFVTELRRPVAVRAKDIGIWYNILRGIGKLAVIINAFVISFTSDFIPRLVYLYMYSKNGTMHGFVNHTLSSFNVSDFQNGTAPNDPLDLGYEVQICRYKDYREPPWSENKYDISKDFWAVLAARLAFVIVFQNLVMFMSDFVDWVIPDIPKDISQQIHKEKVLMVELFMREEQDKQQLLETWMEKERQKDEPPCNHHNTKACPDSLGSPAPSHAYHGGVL

T2 sequence (Q12809 whole entry): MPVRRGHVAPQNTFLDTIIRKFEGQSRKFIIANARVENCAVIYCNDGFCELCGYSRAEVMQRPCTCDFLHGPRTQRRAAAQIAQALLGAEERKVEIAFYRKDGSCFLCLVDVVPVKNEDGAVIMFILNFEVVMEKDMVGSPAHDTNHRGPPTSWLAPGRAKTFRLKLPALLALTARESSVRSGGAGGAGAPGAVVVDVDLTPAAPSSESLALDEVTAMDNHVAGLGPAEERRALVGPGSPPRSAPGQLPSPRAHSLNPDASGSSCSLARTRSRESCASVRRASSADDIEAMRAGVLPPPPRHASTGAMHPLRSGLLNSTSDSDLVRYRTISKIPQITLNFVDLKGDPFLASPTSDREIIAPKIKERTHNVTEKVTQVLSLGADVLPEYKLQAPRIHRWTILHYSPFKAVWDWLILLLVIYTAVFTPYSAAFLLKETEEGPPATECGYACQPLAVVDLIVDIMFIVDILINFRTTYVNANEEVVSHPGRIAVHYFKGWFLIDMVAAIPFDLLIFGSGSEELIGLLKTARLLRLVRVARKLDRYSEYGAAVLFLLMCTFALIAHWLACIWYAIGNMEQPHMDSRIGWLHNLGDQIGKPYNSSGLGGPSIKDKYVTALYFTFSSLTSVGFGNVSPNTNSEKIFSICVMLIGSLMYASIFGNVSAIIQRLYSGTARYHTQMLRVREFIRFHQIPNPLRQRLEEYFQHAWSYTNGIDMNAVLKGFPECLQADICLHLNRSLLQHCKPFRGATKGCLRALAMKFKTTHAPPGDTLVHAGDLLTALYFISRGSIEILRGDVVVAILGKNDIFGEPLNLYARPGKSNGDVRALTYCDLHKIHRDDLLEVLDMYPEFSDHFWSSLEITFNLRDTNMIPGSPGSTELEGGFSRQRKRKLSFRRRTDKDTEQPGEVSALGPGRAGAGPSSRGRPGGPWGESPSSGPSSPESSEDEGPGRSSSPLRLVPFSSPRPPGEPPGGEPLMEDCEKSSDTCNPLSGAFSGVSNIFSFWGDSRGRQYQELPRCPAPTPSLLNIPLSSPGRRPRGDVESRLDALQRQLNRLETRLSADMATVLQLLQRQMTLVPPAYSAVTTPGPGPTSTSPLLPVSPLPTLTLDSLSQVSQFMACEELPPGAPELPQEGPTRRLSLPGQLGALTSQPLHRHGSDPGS
T1 sequence (P13569 whole entry): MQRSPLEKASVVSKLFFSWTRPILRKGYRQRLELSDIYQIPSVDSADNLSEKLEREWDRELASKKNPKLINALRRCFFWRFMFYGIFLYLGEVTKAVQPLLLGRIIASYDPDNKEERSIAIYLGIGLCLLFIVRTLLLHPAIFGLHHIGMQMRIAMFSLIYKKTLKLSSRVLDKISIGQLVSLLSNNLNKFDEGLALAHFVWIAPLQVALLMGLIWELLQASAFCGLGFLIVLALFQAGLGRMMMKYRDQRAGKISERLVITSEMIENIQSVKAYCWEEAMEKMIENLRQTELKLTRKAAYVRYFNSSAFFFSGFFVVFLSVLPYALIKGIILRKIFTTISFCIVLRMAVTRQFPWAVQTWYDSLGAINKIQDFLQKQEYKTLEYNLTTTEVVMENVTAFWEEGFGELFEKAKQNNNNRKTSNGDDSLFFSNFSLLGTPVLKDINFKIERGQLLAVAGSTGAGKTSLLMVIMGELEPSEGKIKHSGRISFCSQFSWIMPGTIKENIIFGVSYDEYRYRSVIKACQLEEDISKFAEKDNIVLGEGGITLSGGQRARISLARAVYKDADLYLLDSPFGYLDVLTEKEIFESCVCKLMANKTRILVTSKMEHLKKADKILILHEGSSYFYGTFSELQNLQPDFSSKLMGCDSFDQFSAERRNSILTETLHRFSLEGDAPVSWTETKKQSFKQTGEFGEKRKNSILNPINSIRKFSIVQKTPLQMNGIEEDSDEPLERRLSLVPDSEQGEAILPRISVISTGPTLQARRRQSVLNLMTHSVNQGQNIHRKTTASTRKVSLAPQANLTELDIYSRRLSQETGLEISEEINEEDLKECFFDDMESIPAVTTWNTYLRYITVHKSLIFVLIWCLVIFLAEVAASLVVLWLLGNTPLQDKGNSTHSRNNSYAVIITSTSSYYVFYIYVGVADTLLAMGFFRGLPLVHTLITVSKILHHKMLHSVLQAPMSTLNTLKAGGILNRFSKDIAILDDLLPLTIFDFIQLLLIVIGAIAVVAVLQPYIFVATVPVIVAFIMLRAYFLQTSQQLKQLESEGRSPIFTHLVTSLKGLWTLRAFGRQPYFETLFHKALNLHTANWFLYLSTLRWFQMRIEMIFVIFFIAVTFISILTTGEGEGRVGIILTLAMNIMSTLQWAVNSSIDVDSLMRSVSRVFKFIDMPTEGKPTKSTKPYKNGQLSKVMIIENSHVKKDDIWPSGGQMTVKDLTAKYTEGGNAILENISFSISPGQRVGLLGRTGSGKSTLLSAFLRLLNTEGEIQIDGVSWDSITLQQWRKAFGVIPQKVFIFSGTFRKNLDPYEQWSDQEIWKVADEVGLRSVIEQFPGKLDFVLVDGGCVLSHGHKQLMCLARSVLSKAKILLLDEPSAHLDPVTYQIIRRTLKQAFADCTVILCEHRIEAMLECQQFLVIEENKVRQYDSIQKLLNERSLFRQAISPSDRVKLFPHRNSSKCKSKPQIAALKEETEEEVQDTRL

| Compound | short-circuit current (Ussing chamber), forskolin-activated; complete block at 1 (CFTR) [µM] | IC50 (hERG channel) [µM] | YFP iodide-influx quenching assay and short-circuit current (Ussing chamber) [1] |
| --- | --- | --- | --- |
| O=C(O)c1ccc(/C=C2\SC(=S)N(c3cccc(C(F)(F)F)c3)C2=O)cc1 [CFTRinh-172] | 10 |  |  |
| COc1ccc(-c2oc3cc(OC)c(OC)c(O)c3c(=O)c2OC)cc1O [vitexicarpin, 3′,5-dihydroxy-3,4′,6,7-tetramethoxyflavone] |  | 35.4 | vitexicarpin inhibited ANO1 activation in a dose-dependent manner (Figure 2A) |

Reference: publication PMC12162337, “Vitexicarpin suppresses colorectal and non-small cell lung cancer via selective inhibition of Anoctamin 1” (Frontiers in Pharmacology, 2025)
